Test results taken from the supplement of paper PMC10307832.

Columns and labels:
Assay in all cases: relative viability (nuclei count vs DMSO), 5 days (fraction); higher = more cells survive
Veliparib + Trametinib = compound: C[C@]1(c2nc3c(C(N)=O)cccc3[nH]2)CCCN1 [Veliparib] + CC(=O)Nc1cccc(-n2c(=O)n(C3CC3)c(=O)c3c(Nc4ccc(I)cc4F)n(C)c(=O)c(C)c32)c1 [Trametinib] (partner 0.02 µM)
How it was run: (§1)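 A single step with final 0.05% Triton X-100, 1% formaldehyde and 1 ug/ml Hoechst fixed the cells and stained nuclei 5 days after treatment. Lung cancer cell lines in 1536-well plates had been treated by pin tool the day after seeding with one drug alone or a fixed anchor-drug dose plus five library-drug doses (not always all listed) in √10 steps, and nuclei were counted on 4× images. Relative viability is the ratio of nuclei in treated wells to nuclei in vehicle wells, taken as the median of duplicate plates.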

Veliparib + Foretinib = compound: C[C@]1(c2nc3c(C(N)=O)cccc3[nH]2)CCCN1 [Veliparib] + COc1cc2c(Oc3ccc(NC(=O)C4(C(=O)Nc5ccc(F)cc5)CC4)cc3F)ccnc2cc1OCCCN1CCOCC1 [Foretinib] (partner 0.25 µM)
How it was run: as §1

[1] = compound: COC1=CC=C(C=C1)CN2C=CC3=C2C=C(C=C3)C(=O)NO + Cc1nc(Nc2ncc(C(=O)Nc3c(C)cccc3Cl)s2)cc(N2CCN(CCO)CC2)n1 [Dasatinib] (partner 0.075 µM)
How it was run: as §1

[2] = compound: COC1=CC=C(C=C1)CN2C=CC3=C2C=C(C=C3)C(=O)NO + CC(C)C[C@H](NC(=O)[C@H](Cc1ccccc1)NC(=O)c1cnccn1)B(O)O [Bortezomib] (partner 0.002 µM)
How it was run: as §1

| Cell Line | relative viability (Veliparib + Trametinib; first compound 0.06325 µM) | relative viability (Veliparib + Trametinib; first compound 0.2 µM) | relative viability (Veliparib + Trametinib; first compound 0.6325 µM) | relative viability (Veliparib + Trametinib; first compound 2 µM) | relative viability (Veliparib + Foretinib; first compound 0.02 µM) | relative viability (Veliparib + Foretinib; first compound 0.06325 µM) | relative viability (Veliparib + Foretinib; first compound 0.2 µM) | relative viability (Veliparib + Foretinib; first compound 0.6325 µM) | relative viability (Veliparib + Foretinib; first compound 2 µM) | relative viability ([1]; first compound 0.08 µM) | relative viability ([1]; first compound 0.253 µM) | relative viability ([1]; first compound 0.8 µM) | relative viability ([1]; first compound 2.53 µM) | relative viability ([1]; first compound 8 µM) | relative viability ([2]; first compound 0.08 µM) | relative viability ([2]; first compound 0.253 µM) | relative viability ([2]; first compound 0.8 µM) | relative viability ([2]; first compound 2.53 µM) | relative viability ([2]; first compound 8 µM) | relative viability (Veliparib + Trametinib; first compound 0.02 µM) |
| --- | --- | --- | --- | --- | --- | --- | --- | --- | --- | --- | --- | --- | --- | --- | --- | --- | --- | --- | --- | --- |
| EKVX | 0.317 | 0.329 | 0.245 | 0.331 | 0.395 | 0.386 | 0.728 | 0.834 | 0.533 | 0.552 | 0.576 | 0.592 | 0.709 | 0.568 | 1.03 | 0.762 | 1.16 | 1.08 | 1.21 | – |
| NCI-H520 | 0.68 | 0.721 | 0.646 | 0.705 | 0.824 | 0.763 | 0.805 | 0.601 | 0.647 | 0.16 | 0.228 | 0.213 | 0.232 | 0.281 | 0.218 | 0.722 | 0.64 | 0.751 | 0.525 | 0.749 |
| NCI-H1355 | 0.282 | 0.438 | 0.422 | 0.447 | – | 0.879 | 0.965 | 0.932 | 0.982 | – | 0.764 | 0.717 | 0.698 | 0.679 | 1.1 | 1.15 | 1.34 | 1.27 | 1.19 | 0.368 |
| NCI-H2228 | 0.57 | 0.597 | 0.523 | 0.368 | 0.794 | 0.731 | 0.845 | 0.737 | 0.957 | – | 0.458 | 0.662 | 0.497 | 0.413 | 1.22 | 1.03 | 0.93 | 1.18 | 0.863 | 0.362 |
| NCI-H441 | 0.497 | 0.488 | 0.477 | 0.568 | 0.905 | 0.738 | 0.992 | 0.877 | 0.948 | 0.613 | 0.621 | 0.623 | 0.567 | 0.485 | 0.331 | 0.406 | 0.543 | 0.497 | 0.413 | 0.489 |
| NCI-H661 | 0.646 | 0.584 | 0.543 | 0.64 | 0.999 | 1.02 | 0.866 | 0.892 | 0.998 | – | 0.985 | 0.957 | 0.802 | 0.579 | – | 0.811 | 0.649 | 0.843 | 0.715 | 0.525 |
| NCI-H1666 | 0.861 | 0.782 | 0.754 | 0.926 | 1.01 | 0.96 | 0.997 | 0.895 | 0.964 | 0.831 | 0.783 | 0.887 | 0.873 | 0.822 | 0.621 | 1.02 | 0.782 | 0.84 | 0.774 | 0.84 |
| NCI-H2347 | 0.254 | 0.26 | 0.364 | 0.288 | 0.977 | 0.545 | 0.763 | 0.802 | 0.844 | 0.248 | 0.246 | 0.337 | 0.329 | 0.325 | – | 0.933 | 0.887 | 0.874 | 0.727 | 0.294 |
